# Measurements published in US20180016593A1, “HERBICIDE-RESISTANT SUNFLOWER PLANTS, POLYNUCLEOTIDES ENCODING HERBICIDE-RESISTANT ACETOHYDROXYACID SYNTHASE LARGE SUBUNIT PROTEINS, AND METHODS OF USE” (priority 2005, published 2018).
# Columns and labels:
# Test in all cases: Greenhouse whole-plant imazapir dose response (Example 8)
# Type in all cases: in vivo, Helianthus annuus
# [1] = system: sunflower GIM 5-6 (Restorer Line, A122T); settings: GIM5-6, 14 DAT
# Protocol: (§1) A greenhouse study was conducted to quantify and contrast the imazapir sensivity of the mutants A122T and A205V in different genetic backgrounds at the whole plant level in sunflower. Seeds of the different sunflower lines that were used in this study were obtained under field conditions.
# (§2) Seeds were sown in Petri dishes and, after germination, plantlets were transplanted to pots of 10 cm of diameter in a potting media consisting of equal parts of vermiculite, soil and sand. Plants were grown in a greenhouse under natural light conditions supplemented with 400 W sodium halide lamps to provide a 16 hrs daylength. Day/night temperatures were 25 and 20° C., respectively. At the V2 stage 10 plants of each genotype were randomly assigned to each treatment consisting of […] imazapir doses (0, 40, 80, 160, 240, 320, 400 and 480 g ai/ha), and a zero-time biomass determination. Experiment was arranged as a randomized block design with a full factorial (sunflower line×treatment) arrangement of treatments and 10 replications.
# (§3) On the day of herbicide application ten plants of each genotype were cut at the cotyledonal node and dried at 60° C. for 48 hrs zero-time for dried weight determination.
# (§4) Height was determined as the distance between the cotyledonal node and the apex of each plant. For root biomass determination, each plant was taken from the pot and the potting media was washed out from the roots. Above ground biomass data from each line were converted to biomass accumulation after application by subtracting the appropriate average zero-time biomass from each sample. Dry biomass data were converted to percentages of the untreated control plants within each line to allow direct comparisons between groups. […]
# [2] = system: sunflower GIM 5-7 (Manteiner Line, A205V); settings: GIM5-7, 14 DAT
# Protocol: as §1, §2, §3, §4
# [3] = system: sunflower GM1606 (Manteiner Line, A122T); settings: 14 DAT
# Protocol: as §1, §2, §3, §4
# [4] = system: sunflower GM40 (Manteiner Line, A122T); settings: 14 DAT
# Protocol: as §1, §2, §3, §4
# [5] = system: sunflower IB920 (Manteiner Line, A205V); settings: 14 DAT
# Protocol: as §1, §2, §3, §4
# [6] = system: sunflower IR79 (Restorer Line, A205V); settings: 14 DAT
# Protocol: as §1, §2, §3, §4
compound,measurement,setting,value
CC(C)C1(C)N=C(c2ncccc2C(=O)O)NC1=O (centres unmarked) [imazapyr],biomass accumulation (above ground dry weight),[1]; 0.5x (40 g ai/ha),100.0 % of untreated plots
same,plant height,[1]; 0.5x (40 g ai/ha),100.0 % of untreated plots
same,root dry weight,[1]; 0.5x (40 g ai/ha),100 % of untreated plots
same,biomass accumulation (above ground dry weight),[1]; 1x (80 g ai/ha),96.4 % of untreated plots
same,plant height,[1]; 1x (80 g ai/ha),100.0 % of untreated plots
same,root dry weight,[1]; 1x (80 g ai/ha),88.0 % of untreated plots
same,biomass accumulation (above ground dry weight),[1]; 2x (160 g ai/ha),97.7 % of untreated plots
same,plant height,[1]; 2x (160 g ai/ha),99.1 % of untreated plots
same,root dry weight,[1]; 2x (160 g ai/ha),90.0 % of untreated plots
same,biomass accumulation (above ground dry weight),[1]; 3x (240 g ai/ha),95.8 % of untreated plots
same,plant height,[1]; 3x (240 g ai/ha),98.1 % of untreated plots
same,root dry weight,[1]; 3x (240 g ai/ha),98.0 % of untreated plots
same,biomass accumulation (above ground dry weight),[1]; 4x (320 g ai/ha),90.8 % of untreated plots
same,plant height,[1]; 4x (320 g ai/ha),91.0 % of untreated plots
same,root dry weight,[1]; 4x (320 g ai/ha),80.0 % of untreated plots
same,biomass accumulation (above ground dry weight),[1]; 5x (400 g ai/ha),81.9 % of untreated plots
same,plant height,[1]; 5x (400 g ai/ha),94.3 % of untreated plots
same,root dry weight,[1]; 5x (400 g ai/ha),80.0 % of untreated plots
same,biomass accumulation (above ground dry weight),[1]; 6x (480 g ai/ha),78.0 % of untreated plots
same,plant height,[1]; 6x (480 g ai/ha),85.8 % of untreated plots
same,root dry weight,[1]; 6x (480 g ai/ha),65.8 % of untreated plots
same,biomass accumulation (above ground dry weight),[2]; 0.5x (40 g ai/ha),92.9 % of untreated plots
same,plant height,[2]; 0.5x (40 g ai/ha),79.1 % of untreated plots
same,root dry weight,[2]; 0.5x (40 g ai/ha),79.2 % of untreated plots
same,biomass accumulation (above ground dry weight),[2]; 1x (80 g ai/ha),75.1 % of untreated plots
same,plant height,[2]; 1x (80 g ai/ha),76.7 % of untreated plots
same,root dry weight,[2]; 1x (80 g ai/ha),56.3 % of untreated plots
same,biomass accumulation (above ground dry weight),[2]; 2x (160 g ai/ha),55.1 % of untreated plots
same,plant height,[2]; 2x (160 g ai/ha),57.7 % of untreated plots
same,root dry weight,[2]; 2x (160 g ai/ha),40.6 % of untreated plots
same,biomass accumulation (above ground dry weight),[2]; 3x (240 g ai/ha),45.6 % of untreated plots
same,plant height,[2]; 3x (240 g ai/ha),55.3 % of untreated plots
same,root dry weight,[2]; 3x (240 g ai/ha),40.2 % of untreated plots
same,biomass accumulation (above ground dry weight),[2]; 4x (320 g ai/ha),31.8 % of untreated plots
same,plant height,[2]; 4x (320 g ai/ha),27.3 % of untreated plots
same,root dry weight,[2]; 4x (320 g ai/ha),34.0 % of untreated plots
same,biomass accumulation (above ground dry weight),[2]; 5x (400 g ai/ha),34.2 % of untreated plots
same,plant height,[2]; 5x (400 g ai/ha),37.2 % of untreated plots
same,root dry weight,[2]; 5x (400 g ai/ha),48.5 % of untreated plots
same,biomass accumulation (above ground dry weight),[2]; 6x (480 g ai/ha),36.8 % of untreated plots
same,plant height,[2]; 6x (480 g ai/ha),30.0 % of untreated plots
same,root dry weight,[2]; 6x (480 g ai/ha),43.1 % of untreated plots
same,biomass accumulation (above ground dry weight),[3]; 0.5x (40 g ai/ha),100.0 % of untreated plots
same,plant height,[3]; 0.5x (40 g ai/ha),97.0 % of untreated plots
same,root dry weight,[3]; 0.5x (40 g ai/ha),100 % of untreated plots
same,biomass accumulation (above ground dry weight),[3]; 1x (80 g ai/ha),100.0 % of untreated plots
same,plant height,[3]; 1x (80 g ai/ha),95.7 % of untreated plots
same,root dry weight,[3]; 1x (80 g ai/ha),100.0 % of untreated plots
same,biomass accumulation (above ground dry weight),[3]; 2x (160 g ai/ha),97.6 % of untreated plots
same,plant height,[3]; 2x (160 g ai/ha),95.2 % of untreated plots
same,root dry weight,[3]; 2x (160 g ai/ha),92.5 % of untreated plots
same,biomass accumulation (above ground dry weight),[3]; 3x (240 g ai/ha),95.4 % of untreated plots
same,plant height,[3]; 3x (240 g ai/ha),95.7 % of untreated plots
same,root dry weight,[3]; 3x (240 g ai/ha),85.2 % of untreated plots
same,biomass accumulation (above ground dry weight),[3]; 4x (320 g ai/ha),90.5 % of untreated plots
same,plant height,[3]; 4x (320 g ai/ha),94.1 % of untreated plots
same,root dry weight,[3]; 4x (320 g ai/ha),87.0 % of untreated plots
same,biomass accumulation (above ground dry weight),[3]; 5x (400 g ai/ha),85.3 % of untreated plots
same,plant height,[3]; 5x (400 g ai/ha),94.3 % of untreated plots
same,root dry weight,[3]; 5x (400 g ai/ha),88.1 % of untreated plots
same,biomass accumulation (above ground dry weight),[3]; 6x (480 g ai/ha),83.0 % of untreated plots
same,plant height,[3]; 6x (480 g ai/ha),91.4 % of untreated plots
same,root dry weight,[3]; 6x (480 g ai/ha),69.5 % of untreated plots
same,biomass accumulation (above ground dry weight),[4]; 0.5x (40 g ai/ha),96.5 % of untreated plots
same,plant height,[4]; 0.5x (40 g ai/ha),99.6 % of untreated plots
same,root dry weight,[4]; 0.5x (40 g ai/ha),100 % of untreated plots
same,biomass accumulation (above ground dry weight),[4]; 1x (80 g ai/ha),94.1 % of untreated plots
same,plant height,[4]; 1x (80 g ai/ha),97.4 % of untreated plots
same,root dry weight,[4]; 1x (80 g ai/ha),100 % of untreated plots
same,biomass accumulation (above ground dry weight),[4]; 2x (160 g ai/ha),97.6 % of untreated plots
same,plant height,[4]; 2x (160 g ai/ha),95.2 % of untreated plots
same,root dry weight,[4]; 2x (160 g ai/ha),100 % of untreated plots
same,biomass accumulation (above ground dry weight),[4]; 3x (240 g ai/ha),95.8 % of untreated plots
same,plant height,[4]; 3x (240 g ai/ha),93.0 % of untreated plots
same,root dry weight,[4]; 3x (240 g ai/ha),92.2 % of untreated plots
same,biomass accumulation (above ground dry weight),[4]; 4x (320 g ai/ha),88.3 % of untreated plots
same,plant height,[4]; 4x (320 g ai/ha),93.0 % of untreated plots
same,root dry weight,[4]; 4x (320 g ai/ha),98.1 % of untreated plots
same,biomass accumulation (above ground dry weight),[4]; 5x (400 g ai/ha),85.6 % of untreated plots
same,plant height,[4]; 5x (400 g ai/ha),93.9 % of untreated plots
same,root dry weight,[4]; 5x (400 g ai/ha),84.2 % of untreated plots
same,biomass accumulation (above ground dry weight),[4]; 6x (480 g ai/ha),76.8 % of untreated plots
same,plant height,[4]; 6x (480 g ai/ha),84.3 % of untreated plots
same,root dry weight,[4]; 6x (480 g ai/ha),74.3 % of untreated plots
same,biomass accumulation (above ground dry weight),[5]; 0.5x (40 g ai/ha),93.9 % of untreated plots
same,plant height,[5]; 0.5x (40 g ai/ha),96.2 % of untreated plots
same,root dry weight,[5]; 0.5x (40 g ai/ha),94.0 % of untreated plots
same,biomass accumulation (above ground dry weight),[5]; 1x (80 g ai/ha),87.9 % of untreated plots
same,plant height,[5]; 1x (80 g ai/ha),80.0 % of untreated plots
same,root dry weight,[5]; 1x (80 g ai/ha),89.6 % of untreated plots
same,biomass accumulation (above ground dry weight),[5]; 2x (160 g ai/ha),58.8 % of untreated plots
same,plant height,[5]; 2x (160 g ai/ha),61.5 % of untreated plots
same,root dry weight,[5]; 2x (160 g ai/ha),50.7 % of untreated plots
same,biomass accumulation (above ground dry weight),[5]; 3x (240 g ai/ha),48.4 % of untreated plots
same,plant height,[5]; 3x (240 g ai/ha),40.9 % of untreated plots
same,root dry weight,[5]; 3x (240 g ai/ha),37.3 % of untreated plots
same,biomass accumulation (above ground dry weight),[5]; 4x (320 g ai/ha),35.5 % of untreated plots
same,plant height,[5]; 4x (320 g ai/ha),27.9 % of untreated plots
same,root dry weight,[5]; 4x (320 g ai/ha),32.8 % of untreated plots
same,plant height,[5]; 5x (400 g ai/ha),30.0 % of untreated plots
same,root dry weight,[5]; 5x (400 g ai/ha),25.4 % of untreated plots
same,biomass accumulation (above ground dry weight),[5]; 6x (480 g ai/ha),29.4 % of untreated plots
same,plant height,[5]; 6x (480 g ai/ha),27.1 % of untreated plots
same,root dry weight,[5]; 6x (480 g ai/ha),19.4 % of untreated plots
same,biomass accumulation (above ground dry weight),[6]; 0.5x (40 g ai/ha),94.4 % of untreated plots
same,plant height,[6]; 0.5x (40 g ai/ha),92.8 % of untreated plots
same,root dry weight,[6]; 0.5x (40 g ai/ha),98.6 % of untreated plots
same,biomass accumulation (above ground dry weight),[6]; 1x (80 g ai/ha),74.0 % of untreated plots
same,plant height,[6]; 1x (80 g ai/ha),80.9 % of untreated plots
same,root dry weight,[6]; 1x (80 g ai/ha),53.4 % of untreated plots
same,biomass accumulation (above ground dry weight),[6]; 2x (160 g ai/ha),67.7 % of untreated plots
same,plant height,[6]; 2x (160 g ai/ha),74.9 % of untreated plots
same,root dry weight,[6]; 2x (160 g ai/ha),42.5 % of untreated plots
same,biomass accumulation (above ground dry weight),[6]; 3x (240 g ai/ha),49.1 % of untreated plots
same,plant height,[6]; 3x (240 g ai/ha),55.7 % of untreated plots
same,root dry weight,[6]; 3x (240 g ai/ha),38.4 % of untreated plots
same,biomass accumulation (above ground dry weight),[6]; 4x (320 g ai/ha),44.5 % of untreated plots
same,plant height,[6]; 4x (320 g ai/ha),52.8 % of untreated plots
same,root dry weight,[6]; 4x (320 g ai/ha),31.5 % of untreated plots
same,biomass accumulation (above ground dry weight),[6]; 5x (400 g ai/ha),40.1 % of untreated plots
same,plant height,[6]; 5x (400 g ai/ha),41.7 % of untreated plots
same,root dry weight,[6]; 5x (400 g ai/ha),23.3 % of untreated plots
same,biomass accumulation (above ground dry weight),[6]; 6x (480 g ai/ha),35.3 % of untreated plots
same,plant height,[6]; 6x (480 g ai/ha),33.2 % of untreated plots
same,root dry weight,[6]; 6x (480 g ai/ha),21.9 % of untreated plots
